Experimental data from US7833983B2, “Analytical method and kit thereof” (Phadia, AB, priority 2003, dated 2010).
Non-standard residues stand in square brackets, D forms with d. No end group written: not given here. Arg(Me2s) = CN=C(NC)NCCC[C@H](N)C(=O)O

Legend:
[1] = tested on: anti-Sm antibodies; experiment: Epitope-mapping with immobilized oligopeptides (peptide arrays) probed with anti-Sm sera; assay type: binding, human; conditions: for number of anti-Sm sera recognizing the peptide: panel of five anti-Sm sera (#36, #37, #31, #84, #Sm), serum 1:100, ECL detection
Excerpt: The published sequences of SmD1, P13641, (Rokeach et al., 1988) and SmD3, P43331, (Lehmeier et al., 1994) were used to synthesize overlapping 15 mer peptides with a pipetting robot according to the protocol described by Gausepohl and Behn (2002). The C-terminal extensions of both polypeptides were synthesized with an offset of 2 amino acids (13 amino acids overlap). Each arginine containing peptide was synthesized as three variants, with natural arginine, with sDMA or with asymmetrical dimethylarginine (asDMA) at the respective positions. Later on, a highly reactive peptide of SmD3 was synthesized with certain combinations of natural arginine and sDMA. Following completion of the peptide synthesis non-specific binding sites were blocked by over-night incubation of the membranes in blocking buffer (BB) at room temperature (RT). After one washing step membranes were incubated with serum samples at a dilution of 1:100 in BB for 2 h at RT. Unbound antibodies were removed by three washing steps. For detection peroxidase conjugated goat-anti-human IgG antibody was diluted 1:5000 in BB and incubated for 75 min (RT). Superfluous secondary antibodies were removed by three washing steps. Finally, bound antibodies were visualized using the enhanced chemoluminiscence (ECL) detection-system.
Epitope fine-mapping of the C-terminal extensions of SmD1 and D3. To evaluate the effect of arginine-dimethylation on the antigenicity of SmD1 and SmD3 and to map relevant epitopes on both polypeptides a panel of anti-Sm sera was tested with peptide arrays (15 mer, 2 offset) covering the C-terminal region of SmD1 (P13641) and SmD3 (P43331).

[2] = tested on: Lupus-prone mice; conditions: injection; peptide fused to a carrier protein; Riemekasten et al., 2001; cited from earlier work

AAsdRGsdRGsdRGMGsdRGNIF (AA[Arg(Me2s)]G[Arg(Me2s)]G[Arg(Me2s)]GMG[Arg(Me2s)]GNIF) [peptide no. 77, SmD3 aa 108-122 with all arginines as sDMA]
number of anti-Sm sera recognizing the peptide [1]: three out of five | number of anti-Sm sera recognizing the peptide ([1]; listed as SEQ ID NO: 3): Three out of five

KREAVAGRGRGRGRG [compound 10, SmD1 array peptide; text describes glycine and DMA repeats]
binding of anti-Sm antibodies (in words) ([1]; anti-SmD sera #36, #37, #31, #84, #Sm, peptide arrays): strong reactivity

synthetic peptide corresponding to the C-terminal extension of SmD1: literature SmD1 aa 83-119 peptide (Riemekasten et al., 1998) used in an ELISA (VEPKVKSKKREAVAGRGRGRGRGRGRGRGRGRGGPRR; UniProt P62314 83-119, looked up, fragment)
effect on the pathogenic process of Lupus-prone mice [2]: accelerate the pathogenic process
